Patent US20260001914A1, “MACROCYCLIC PEPTIDES TARGETING KRAS” (Merck Sharp & Dohme LLC, priority 2022, published 2026)
*1 amine or outer side, *2 acyl side, *3 side chain or, on linkers, in order; H or OH if unused. Where a SMILES comes first, the peptide text is derived from it. Bridges are numbered along the chain shown (N, C = ends). [ ]: non-standard residue; d: D form. NMeNva(5-imidazol-1-yl) = CN[C@@H](CCCn1ccnc1)C(=O)O; Phe(4-guanidino) = N=C(N)Nc1ccc(C[C@H](N)C(=O)O)cc1; X72 = CC1(C)NC(=N)N(CCC[C@H](N[*:1])C(=O)[*:2])C1=O; X55 = O=C([C@H](Cc1coc(-c2ccccc2)n1)N[*:1])[*:2]; Ala(pyrimidin-5-yl) = N[C@@H](Cc1cncnc1)C(=O)O; X6 = O=C([C@H](Cc1cnn(C2COC2)c1)N[*:1])[*:2]; NMePhe(3-Me) = CN[C@@H](Cc1cccc(C)c1)C(=O)O; X45 = CN([C@@H](Cc1ccncc1F)C(=O)[*:2])[*:1]; X67 = O=C([C@H](Cc1ncc(Cl)cn1)N[*:1])[*:2]; X25 = O=C([C@H](Cc1ccc(F)nc1)N[*:1])[*:2]; X3 = CN([C@@H](Cc1cncnc1)C(=O)[*:2])[*:1]; X5 = O=C([C@H](Cc1c(F)ccnc1F)N[*:1])[*:2]; X57 = Cn1ccc(C[C@H](N[*:1])C(=O)[*:2])n1; X11 = CC(C)(F)CC[C@H](N[*:1])C(=O)[*:2]; Nle(5,5-F2) = CC(F)(F)CC[C@H](N)C(=O)O; X21 = O=C([C@@H]1C[C@H]1CN[*:1])[*:2]; Ala(cPent) = N[C@@H](CC1CCCC1)C(=O)O; Phe(2-F) = N[C@@H](Cc1ccccc1F)C(=O)O; X31 = O=C([C@H](CCC1CC1)N[*:1])[*:2]; NMe3Pal = CN[C@@H](Cc1cccnc1)C(=O)O; X1 = O=C(C12CC(CN[*:1])(C1)C2)[*:2]; X38 = NC(=O)CCCN(CC(=O)[*:2])[*:1]; Ala(cPr) = N[C@@H](CC1CC1)C(=O)O; NMeF = CN[C@@H](Cc1ccccc1)C(=O)O; PhLac = O=C(O)[C@@H](O)Cc1ccccc1; 3Pal = N[C@@H](Cc1cccnc1)C(=O)O; d3Pal = N[C@H](Cc1cccnc1)C(=O)O; Gly(N(CH2)3NH2) = NCCCNCC(=O)O; Ahp(2) = CCCCC[C@H](N)C(=O)O; Cba = N[C@@H](CC1CCC1)C(=O)O; hLeu = CC(C)CC[C@H](N)C(=O)O; hLys = NCCCCC[C@H](N)C(=O)O; αMeC = C[C@](N)(CS)C(=O)O; NMeA = CN[C@@H](C)C(=O)O; Nle = CCCC[C@H](N)C(=O)O; Pra = C#CC[C@H](N)C(=O)O

biological target: KRAS-G12D protein (Homo sapiens, UniProt P01116, G12D); assay: SOS-mediated nucleotide exchange assay (BODIPY-GDP / Tb-streptavidin TR-FRET); type: biochemical
Sequence (P01116 1-188 isoform P01116-2 G12D): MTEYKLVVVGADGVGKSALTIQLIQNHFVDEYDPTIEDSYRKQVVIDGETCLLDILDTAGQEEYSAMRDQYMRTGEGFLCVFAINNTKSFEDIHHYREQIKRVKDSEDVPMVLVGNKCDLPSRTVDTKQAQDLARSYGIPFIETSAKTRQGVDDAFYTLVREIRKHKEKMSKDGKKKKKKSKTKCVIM

Point of comparison: `Cc1cccc(C[C@H]2C(=O)NCC34CC(C3)(C4)C(=O)O[C@@H](Cc3ccccc3)C(=O)N(C)[C@@H](C)C(=O)N[C@@H](Cc3cncnc3)C(=O)N[C@@H](CC3CC3)C(=O)N[C@@H](Cc3ccccc3F)C(=O)N[C@@H](CCC(C)(C)F)C(=O)N2C)c1` [compound 274, cyclo(FLac-NMeA-PyrimAla-cPrA-Phe2F-hL3F-NMePhe3Me-amBCP)] (cyclo([Ala(cPr)][Phe(2-F)][X11][NMePhe(3-Me)][X1][PhLac][NMeA][Ala(pyrimidin-5-yl)])), EC50 1 nM. Against it:
- CCCCC[C@@H]1NC(=O)[C@H](Cc2ccc(OC)cc2)NC(=O)[C@H](CC2CCC2)NC(=O)[C@H](Cc2ccc(NC(=N)N)cc2)NC(=O)CN(CCCC(N)=O)C(=O)[C@H](Cc2ccccc2)NC(=O)CSC[C@@](C)(C(N)=O)NC(=O)[C@H](Cc2ccccc2)N(C)C1=O [compound 386, cyclo(F-Cmpg-Phe4Gn-cBuA-TyrOMe-Abp-NMeF-aMeCl-ClAc)] ({CH2CO}-F[X38][Phe(4-guanidino)][Cba]Y(Me)[Ahp(2)][NMeF][αMeC]-NH2; thioether N-8) — 130-fold higher, 134 nM
- CCCC[C@@H]1NC(=O)[C@H](Cc2ccn(C)n2)NC(=O)[C@H](C)N(C)C(=O)[C@H](Cc2ccccc2)OC(=O)C23CC(CNC(=O)[C@H](Cc4ccccc4)N(C)C(=O)[C@H](CCCC)NC(=O)[C@H](Cc4ccccc4F)NC1=O)(C2)C3 [compound 319, cyclo(FLac-NMeA-MePyzAla-Nle-Phe2F-Nle-NMeF-amBCP)] (cyclo([NMeA][X57][Nle][Phe(2-F)][Nle][NMeF][X1][PhLac])) — 5100-fold higher, 5070 nM
- C#CC[C@@H]1NC(=O)[C@H](CC2CCC2)NC(=O)[C@H](Cc2cccnc2)NC(=O)[C@H](CCCNC(=N)N)NC(=O)[C@H](Cc2ccccc2)NC(=O)CSC[C@@](C)(C(N)=O)NC(=O)[C@H](Cc2ccccc2)N(C)C(=O)[C@H](CCCC)NC1=O [compound 51, cyclo(F-R-3Pal-cBuA-Pra-Nle-NMeF-aMeCl-ClAc)] ({CH2CO}-FR[3Pal][Cba][Pra][Nle][NMeF][αMeC]-NH2; thioether N-8) — 300-fold higher, 298 nM
- C[C@H]1C(=O)N[C@@H](Cc2cncnc2)C(=O)N[C@@H](CCC(C)(F)F)C(=O)N[C@@H](Cc2ccccc2F)C(=O)N[C@@H](CCC(C)(F)F)C(=O)N(C)[C@@H](Cc2ccccc2)C(=O)NCC23CC(C2)(C3)C(=O)O[C@@H](Cc2ccccc2)C(=O)N1C [compound 288, cyclo(FLac-NMeA-PyrimAla-Nle3F2-Phe2F-Nle3F2-NMeF-amBCP)] (cyclo([NMeA][Ala(pyrimidin-5-yl)][Nle(5,5-F2)][Phe(2-F)][Nle(5,5-F2)][NMeF][X1][PhLac])) — 250-fold higher, 247 nM
- CC(C)CC[C@@H]1NC(=O)[C@H](Cc2c(F)ccnc2F)NC(=O)[C@H](CC2CC2)NC(=O)[C@H](Cc2cncnc2)NC(=O)[C@H](C)N(C)C(=O)[C@H](Cc2ccccc2)OC(=O)C23CC(CNC(=O)[C@H](Cc4ccccc4)N(C)C1=O)(C2)C3 [compound 295, cyclo(FLac-NMeA-PyrimAla-cPrA-3Pal26F2-hL-NMeF-amBCP)] (cyclo([Ala(cPr)][X5][hLeu][NMeF][X1][PhLac][NMeA][Ala(pyrimidin-5-yl)])) — 63-fold higher, 63 nM
- CCCC[C@@H]1NC(=O)[C@H](Cc2coc(-c3ccccc3)n2)NC(=O)[C@H](C)N(C)C(=O)[C@H](Cc2ccccc2)OC(=O)C23CC(CNC(=O)[C@H](Cc4ccccc4)N(C)C(=O)[C@H](CCCC)NC(=O)[C@H](Cc4ccccc4F)NC1=O)(C2)C3 [compound 307, cyclo(FLac-NMcA-AlaOxz2Ph-Nle-Phe2F-Nle-NMeF-amBCP)] (cyclo([NMeA][X55][Nle][Phe(2-F)][Nle][NMeF][X1][PhLac])) — 160-fold higher, 155 nM
- CCC[C@@H]1NC(=O)[C@H](Cc2ccc(O)cc2)NC(=O)[C@H](CC(C)C)NC(=O)[C@H](Cc2ccc(O)cc2)NC(=O)[C@H](CCCNC(=N)N)NC(=O)[C@H](Cc2ccccc2)NC(=O)CSC[C@H](C(N)=O)NC(=O)[C@H](Cc2ccccc2)N(C)C1=O [compound 21, cyclo(F-R-Y-L-Y-Nva-NMeF-dCl-ClAc)] — 6400-fold higher, 6420 nM
- CCCCC[C@@H]1NC(=O)[C@H](Cc2ccc(OC)cc2)NC(=O)[C@H](CC2CCC2)NC(=O)[C@H](Cc2ccc(NC(=N)N)cc2)NC(=O)CN(CCCN)C(=O)[C@H](Cc2ccccc2)NC(=O)CSC[C@@](C)(C(N)=O)NC(=O)[C@H](Cc2ccccc2)N(C)C1=O [compound 388, cyclo(F-NPrNH2G-Phe4Gn-cBuA-TyrOMe-Ahp-NMeF-aMeCl-ClAc)] ({CH2CO}-F[Gly(N(CH2)3NH2)][Phe(4-guanidino)][Cba]Y(Me)[Ahp(2)][NMeF][αMeC]-NH2; thioether N-8) — 120-fold higher, 121 nM
- CCC[C@@H]1NC(=O)[C@H](Cc2ccc(O)cc2)NC(=O)[C@H](CC(C)C)NC(=O)[C@H](Cc2ccc(O)cc2)NC(=O)[C@H](CCCNC(=N)N)NC(=O)[C@H](Cc2ccccc2)NC(=O)CCCNC(=O)[C@H](Cc2ccccc2)N(C)C1=O [compound 161, cyclo(F-R-Y-L-Y-Nva-NMeF-C4NH2acid)] — 2800-fold higher, 2840 nM
- Cc1cccc(C[C@H]2C(=O)NCC34CC(C3)(C4)C(=O)O[C@@H](Cc3ccccc3)C(=O)N(C)[C@@H](C)C(=O)N[C@@H](Cc3cncnc3)C(=O)N[C@@H](CC3CC3)C(=O)N[C@@H](Cc3ccccc3F)C(=O)N[C@@H](CCC3CC3)C(=O)N2C)c1 [compound 334, cyclo(FLac-NMeA-PyrimAla-cPrA-Phe2F-hcPrA-NMePhe3Me-amBCP)] (cyclo([Ala(cPr)][Phe(2-F)][X31][NMePhe(3-Me)][X1][PhLac][NMeA][Ala(pyrimidin-5-yl)])) — 2-fold higher, 2 nM
- CCCCC[C@@H]1NC(=O)[C@H](Cc2ccc(O)cc2)NC(=O)[C@H](CC(C)C)NC(=O)[C@H](Cc2ccc(O)cc2)NC(=O)[C@@H](CCCNC(=N)N)NC(=O)[C@H](Cc2ccccc2)NC(=O)CSC[C@@H](C(N)=O)NC(=O)[C@H](Cc2ccccc2)N(C)C1=O [compound 4, cyclo(F-dR-Y-L-Y-Ahp-NMeF-Cl-ClAc)] — 3300-fold higher, 3280 nM
- CC(C)CC[C@@H]1NC(=O)[C@H](Cc2ccccc2F)NC(=O)[C@H](CC2CCCC2)NC(=O)[C@H](Cc2cncnc2)NC(=O)[C@H](C)N(C)C(=O)[C@H](Cc2ccccc2)OC(=O)C23CC(CNC(=O)[C@H](Cc4cncnc4)N(C)C1=O)(C2)C3 [compound 335, cyclo(FLac-NMeA-PyrimAla-cPeA-Phe2F-hL-NMeAlaPyrim-amBCP)] (cyclo([Ala(cPent)][Phe(2-F)][hLeu][X3][X1][PhLac][NMeA][Ala(pyrimidin-5-yl)])) — the same, 1 nM
- CCCC[C@@H]1NC(=O)[C@H](Cc2ccc(F)nc2)NC(=O)[C@H](C)N(C)C(=O)[C@H](Cc2ccccc2)OC(=O)C23CC(CNC(=O)[C@H](Cc4ccccc4)N(C)C(=O)[C@H](CCCC)NC(=O)[C@H](Cc4ccccc4F)NC1=O)(C2)C3 [compound 231, cyclo(FLac-NMeA-4F3Pal-Nle-Phe2F-Nle-NMeF-amBCP)] (cyclo([NMeA][X25][Nle][Phe(2-F)][Nle][NMeF][X1][PhLac])) — 72-fold higher, 72.4 nM
- CCCC[C@@H]1NC(=O)[C@H](Cc2cccnc2)NC(=O)[C@H](CCCn2ccnc2)N(C)C(=O)[C@H](Cc2ccccc2)N(C)C(=O)[C@@H]2C[C@H]2CNC(=O)[C@H](Cc2cccnc2)N(C)C(=O)[C@H](CCCC)NC(=O)[C@H](Cc2ccccc2F)NC1=O [compound 256, cyclo(NMeF-NMeNvaImid-3Pal-Nle-Phe2F-Nle-NMe3Pal-tamcPr)] (cyclo([3Pal][Nle][Phe(2-F)][Nle][NMe3Pal][X21][NMeF][NMeNva(5-imidazol-1-yl)])) — 7600-fold higher, 7650 nM
- CCCC[C@@H]1NC(=O)[C@H](Cc2ncc(Cl)cn2)NC(=O)[C@H](C)N(C)C(=O)[C@H](Cc2ccccc2)OC(=O)C23CC(CNC(=O)[C@H](Cc4ccccc4)N(C)C(=O)[C@H](CCCC)NC(=O)[C@H](Cc4ccccc4F)NC1=O)(C2)C3 [compound 321, cyclo(FLac-NMeA-Ala2Pyrim5Cl-Nle-Phe2F-Nle-NMeF-amBCP)] (cyclo([NMeA][X67][Nle][Phe(2-F)][Nle][NMeF][X1][PhLac])) — 620-fold higher, 617 nM
- CCCCC[C@@H]1NC(=O)[C@H](Cc2ccc(OC)cc2)NC(=O)[C@H](CC2CCC2)NC(=O)[C@H](CCCCCN)NC(=O)[C@H](CCCNC(=N)N)NC(=O)[C@H](Cc2ccccc2)NC(=O)CSC[C@@](C)(C(N)=O)NC(=O)[C@H](Cc2ccccc2)N(C)C1=O [compound 348, cyclo(F-R-hK-cBuA-TyrOMe-Ahp-NMeF-aMeCl-ClAc)] ({CH2CO}-FR[hLys][Cba]Y(Me)[Ahp(2)][NMeF][αMeC]-NH2; thioether N-8) — 46-fold higher, 45.8 nM
- CC(C)CC[C@@H]1NC(=O)[C@H](Cc2cnn(C3COC3)c2)NC(=O)[C@H](CC2CC2)NC(=O)[C@H](Cc2cncnc2)NC(=O)[C@H](C)N(C)C(=O)[C@H](Cc2ccccc2)OC(=O)C23CC(CNC(=O)[C@H](Cc4ccccc4)N(C)C1=O)(C2)C3 [compound 300, cyclo(FLac-NMeA-PyrimAla-cPrA-AlaPyz1Ox-hL-NMeF-amBCP)] (cyclo([Ala(cPr)][X6][hLeu][NMeF][X1][PhLac][NMeA][Ala(pyrimidin-5-yl)])) — 250-fold higher, 254 nM
- CCCC[C@@H]1NC(=O)[C@H](Cc2ccccc2F)NC(=O)[C@H](CC2CCC2)NC(=O)[C@@H](Cc2cccnc2)NC(=O)[C@H](CCCN2C(=N)NC(C)(C)C2=O)NC(=O)[C@H](Cc2ccccc2)NC(=O)C23CC(CNC(=O)[C@H](Cc4cccnc4)N(C)C1=O)(C2)C3 [compound 105, cyclo(F-baceNva-d3Pal-cBuA-Phe2F-Nle-NMe3Pal-amBCP)] (cyclo(F[X72][d3Pal][Cba][Phe(2-F)][Nle][NMe3Pal][X1])) — 7.6-fold higher, 7.56 nM
- CCCCC[C@@H]1NC(=O)[C@H](Cc2ccc(OC)cc2)NC(=O)[C@H](CC2CCC2)NC(=O)[C@H](Cc2ccc(C)nc2)NC(=O)[C@H](CCCNC(=N)N)NC(=O)[C@H](Cc2ccccc2)NC(=O)CSC[C@@](C)(C(N)=O)NC(=O)[C@H](Cc2ccccc2)N(C)C1=O [compound 364, cyclo(F-R-4Me3Pal-cBuA-TyrOMe-Ahp-NMeF-aMeCl-ClAc)] — 34-fold higher, 33.5 nM
- CC(C)CC[C@@H]1NC(=O)[C@H](Cc2ccccc2F)NC(=O)[C@H](CC2CC2)NC(=O)[C@H](Cc2cncnc2)NC(=O)[C@H](C)N(C)C(=O)[C@H](Cc2ccccc2)OC(=O)C23CC(CNC(=O)[C@H](Cc4ccncc4F)N(C)C1=O)(C2)C3 [compound 337, cyclo(FLac-NMeA-PyrimAla-cPrA-Phe2F-hL-NMe4Pal2F-amBCP)] (cyclo([Ala(cPr)][Phe(2-F)][hLeu][X45][X1][PhLac][NMeA][Ala(pyrimidin-5-yl)])) — 3-fold higher, 3 nM
